Where “and” joins values, the source holds several entries; their conditions need not be identical. Equal entries are not always repeated.
Experiment: xn = mol fraction of the nth substance listed

Cl[Si](Cl)(Cl)Cl + COCOC
303.1 K, 101 kPa
Conditions	viscosity [mPa·s]
x2 = 0.0989	0.419
x2 = 0.1906	0.412
x2 = 0.2879	0.402
x2 = 0.3682	0.405
x2 = 0.3933	0.41
x2 = 0.4424	0.414
x2 = 0.5106	0.428
x2 = 0.596	0.458
x2 = 0.6589	0.472
x2 = 0.7083	0.461
x2 = 0.7984	0.434
x2 = 0.8477	0.414
x2 = 0.9026	0.369

CCC#N + CS(C)=O
viscosity [mPa·s]
Conditions	298.15 K	303.15 K	308.15 K	313.15 K	318.15 K	323.15 K
101 kPa, x2 = 0.1078	0.49	0.47	0.44	0.43	0.4	0.35
101 kPa, x2 = 0.2092	0.56	0.54	0.51	0.48	0.46	0.4
101 kPa, x2 = 0.3026	0.63	0.6	0.57	0.55	0.52	0.45
101 kPa, x2 = 0.3983	0.72	0.69	0.65	0.62	0.6	0.51
101 kPa, x2 = 0.4995	0.85	0.81	0.75	0.71	0.68	0.58
101 kPa, x2 = 0.6026	1.01	0.96	0.89	0.84	0.79	0.68
101 kPa, x2 = 0.7077	1.2	1.12	1.04	0.98	0.92	0.78
101 kPa, x2 = 0.7966	1.39	1.29	1.2	1.1	1.05	0.89
101 kPa, x2 = 0.9014	1.67	1.54	1.4	1.31	1.23	1.03
101.33 kPa, x1 = 0.1009	–	1.547	–	–	–	–
101.33 kPa, x1 = 0.202	–	1.322	–	–	–	–
101.33 kPa, x1 = 0.3031	–	1.12	–	–	–	–
101.33 kPa, x1 = 0.4043	–	0.9436	–	–	–	–
101.33 kPa, x1 = 0.499	–	0.8012	–	–	–	–
101.33 kPa, x1 = 0.6002	–	0.6745	–	–	–	–
101.33 kPa, x1 = 0.7153	–	0.5619	–	–	–	–
101.33 kPa, x1 = 0.798	–	0.4937	–	–	–	–
101.33 kPa, x1 = 0.8994	–	0.4328	–	–	–	–

CCCCCCCCCCO + CS(C)=O
313 K, 101 kPa
Conditions	viscosity [mPa·s]
x2 = 0.0732	5.748
x2 = 0.2168	4.662
x2 = 0.3082	4.127
x2 = 0.3986	3.711
x2 = 0.5096	3.248
x2 = 0.5918	2.964
x2 = 0.6951	2.596
x2 = 0.8064	2.203
x2 = 0.9009	1.838

CCOC(=O)OCC + CS(C)=O
308.15 K, 101 kPa
Conditions	viscosity [mPa·s]
x2 = 0.0902	0.7
x2 = 0.1358	0.719
x2 = 0.2655	0.789
x2 = 0.3678	0.836
x2 = 0.468	0.928
x2 = 0.5579	1.006
x2 = 0.6013	1.047
x2 = 0.6456	1.093
x2 = 0.7167	1.172
x2 = 0.7783	1.249
x2 = 0.8439	1.344
x2 = 0.9239	1.487

NC(N)=O + C[N+](C)(C)CCO.[Cl-]
viscosity
Conditions	100 kPa	101 kPa
293.15 K, x2 = 0.326	1696 mPa·s	–
298.15 K, x2 = 0.33	952.7 mPa·s	–
298.15 K, x2 = 0.333	750 mPa·s and 1264 mPa·s	859.5 mPa·s
298.15 K, x2 = 0.3333	–	748.1 mPa·s
303 K, x2 = 0.3333	–	427.4 mPa·s
303.15 K, x1 = 0.7	–	893 mPa·s
303.15 K, x2 = 0.326	635.5 mPa·s	–
303.15 K, x2 = 0.33	628.9 mPa·s	536.9 mPa·s
303.15 K, x2 = 0.333	562.7 mPa·s	–
303.15 K, x2 = 0.3333	–	511.6 mPa·s
308 K, x2 = 0.333	–	402.8 mPa·s
308 K, x2 = 0.3333	–	310.5 mPa·s
308.15 K, x2 = 0.326	414.6 mPa·s	–
308.15 K, x2 = 0.33	421.9 mPa·s	–
308.15 K, x2 = 0.333	–	348.2 mPa·s
308.15 K, x2 = 0.3333	–	351.5 mPa·s
313 K, x2 = 0.333	–	228 mPa·s
313 K, x2 = 0.3333	–	225.8 mPa·s
313.15 K, x2 = 0.326	280.7 mPa·s	–
313.15 K, x2 = 0.33	314 mPa·s	242.5 mPa·s
313.15 K, x2 = 0.333	296.3 mPa·s	–
313.15 K, x2 = 0.3333	–	243 mPa·s
318 K, x2 = 0.3333	–	163.3 mPa·s
318.15 K, x2 = 0.326	196.4 mPa·s	–
318.15 K, x2 = 0.33	224.4 mPa·s	–
318.15 K, x2 = 0.333	244.7 mPa·s	175.1 mPa·s
318.15 K, x2 = 0.3333	–	169.6 mPa·s
323 K, x2 = 0.333	–	105.6 mPa·s
323 K, x2 = 0.3333	–	121 mPa·s
323.15 K, x1 = 0.7	–	197 mPa·s
323.15 K, x2 = 0.326	142 mPa·s	–
323.15 K, x2 = 0.33	161.2 mPa·s	–
323.15 K, x2 = 0.333	171.5 mPa·s and 198.4 mPa·s	–

OCCOCCOCCO + C[N+](C)(C)CCO.[Cl-]
Conditions	viscosity [mPa·s]
298.15 K, 101 kPa, x2 = 0.25	72.3

CCCCCCCCCCO + Cc1ccc(C)cc1
viscosity [mPa·s], 101 kPa
Conditions	298.15 K	308.15 K
x2 = 0.0806	9.447	6.565
x2 = 0.1731	7.145	5.045
x2 = 0.2506	5.591	4.011
x2 = 0.3197	4.463	3.242
x2 = 0.3693	3.779	2.781
x2 = 0.4336	3.053	2.275
x2 = 0.4929	2.512	1.9
x2 = 0.5771	1.908	1.481
x2 = 0.662	1.456	1.153
x2 = 0.7265	1.2	0.963
x2 = 0.7763	1.04	0.845
x2 = 0.8293	0.9	0.744
x2 = 0.8891	0.776	0.648
x2 = 0.9369	0.693	0.59

— the CheMixHub viscosity set
